Assay results as given in article PMC5384001 (Scientific Reports, 2017).
Where “and” joins values, the source holds several entries; their conditions need not be identical. Equal values may be shown once.

Molecular target: T1, GluD2-Lc (Rattus norvegicus, UniProt Q63226, A654T)
T1 construct: the function of full-length receptors as well, we introduced them into the GluD2 lurcher mutant (GluD2-Lc); expressed in transfected cells; host or cells: Xenopus laevis oocytes injected with cRNA
T1 sequence (Q63226 24-1007 A654T): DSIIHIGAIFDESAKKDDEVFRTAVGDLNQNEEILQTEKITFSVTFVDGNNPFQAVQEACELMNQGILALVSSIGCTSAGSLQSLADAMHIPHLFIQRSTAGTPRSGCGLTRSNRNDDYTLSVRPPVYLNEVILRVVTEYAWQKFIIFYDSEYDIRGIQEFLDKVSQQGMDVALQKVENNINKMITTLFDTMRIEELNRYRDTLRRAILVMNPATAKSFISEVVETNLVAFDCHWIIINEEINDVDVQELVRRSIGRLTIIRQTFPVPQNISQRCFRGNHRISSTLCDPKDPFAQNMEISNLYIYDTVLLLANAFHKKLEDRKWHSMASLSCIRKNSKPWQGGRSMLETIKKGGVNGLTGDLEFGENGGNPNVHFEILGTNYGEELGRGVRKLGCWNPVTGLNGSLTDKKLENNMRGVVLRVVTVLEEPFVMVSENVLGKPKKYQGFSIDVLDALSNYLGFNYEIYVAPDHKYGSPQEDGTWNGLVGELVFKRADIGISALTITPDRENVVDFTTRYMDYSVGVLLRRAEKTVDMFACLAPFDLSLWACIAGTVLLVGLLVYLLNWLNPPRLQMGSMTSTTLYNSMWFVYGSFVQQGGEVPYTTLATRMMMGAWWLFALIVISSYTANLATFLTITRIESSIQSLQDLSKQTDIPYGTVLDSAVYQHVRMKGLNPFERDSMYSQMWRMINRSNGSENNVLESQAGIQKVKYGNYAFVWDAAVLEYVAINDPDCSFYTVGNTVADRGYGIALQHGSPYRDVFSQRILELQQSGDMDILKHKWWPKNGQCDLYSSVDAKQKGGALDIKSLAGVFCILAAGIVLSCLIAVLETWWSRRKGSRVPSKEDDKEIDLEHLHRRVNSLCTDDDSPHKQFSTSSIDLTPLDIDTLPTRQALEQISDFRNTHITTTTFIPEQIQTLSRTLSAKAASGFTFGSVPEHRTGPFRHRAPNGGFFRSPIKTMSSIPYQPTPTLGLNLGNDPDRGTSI
Test: Two-electrode voltage clamp in Xenopus oocytes, inhibition of spontaneous currents
Assay type: cell-based

N[C@H](CO)C(=O)O [D-serine]
D-serine efficacy Mean ± SEM (fraction of spontaneous current inhibited by saturating D-serine): 46% and 46.2 ± 1.9%
maximal, absolute, D-serine-induced steady-state inhibition of spontaneous currents (n = 20): 222 ± 36 nA
